Measurements: patent publication US20150276760A1, “Method for Screening a Compound Capable of Inhibiting the Notch1 Transcriptional Activity” (INSERM (institut National de la Sante et de la Recherche …, priority 2012, published 2015)

Assays:
monoamine oxidases = settings: compared with TCP; cited from earlier work
[1] = system: Notch-responsive genes in SupT1 cells; test: Notch-responsive gene expression in GSI-treated SupT1 cells
[2] = system: Notch-target genes in T-ALL cells; test: Notch-target gene expression in T-ALL cell lines (Q-RT-PCR)
[3] = system: Notch-induced HES1 transcription in U937 cells; test: Ligand (Delta-like 4)-mediated HES1 activation in U937 cells; settings: recombinant DL-4 Notch ligand
[4] = system: HES1, HEY1 and DTX1 expression in U937 cells; test: Notch-target gene expression in U937 cells without Notch activation (Q-RT-PCR); settings: TCP 1 mM, S2101 30 μM
[5] = system: SupT1, HPB-ALL, TALL1 and DND41; test: Cell count proliferation assay of T-ALL cell lines; format: cell-based, human; settings: shRNA knockdown
Method: (§1) The following antibodies were used for flow cytometry: CD127-PE clone R34.34 and the IgG1-PE (from Beckman Coulter). Flow cytometry was performed on a BD FACSCalibur or MACSQUANT cytometer (Miltenyi). For cell proliferation assays, cells were plated at 2×10^5/mL in triplicate. Proliferation of shRNA-transduced T-ALL cells was followed by cell counting using the MACSQUANT cytometer (gated on live cells). Flow-cytometric cell cycle analysis was performed by staining DNA content of T-ALL cell lines using DAPI. SupT1 cells were also analyzed with EdU-DAPI staining to precisely define the percentage of cells at the G0/G1 phase. […] Cells were washed with PBS and fixed with PBS-4% PFA for 10 minutes at room temperature. After permeabilization, EdU incorporation was detected following the manufacturer's instructions (Click-iT, invitrogen) and total DNA content was measured using DAPI.

T-ALL cell lines = test: Flow-cytometric cell cycle analysis of T-ALL cell lines; format: cell-based, human; settings: shRNA knockdown
Method: as §1

SupT1 xenograft tumor = test: Subcutaneous xenograft tumor model; format: in vivo; settings: SupT1 cells expressing shRNA, SCID mice
Method: Female SCID mice (C.B.-17/IcrHan™Hsd-Prkdcscid) were obtained from Harlan Laboratories (Gannat, France). Animals were maintained in specific pathogen-free animal housing at the Center for Exploration and Experimental Functional Research (CERFE, Evry, France) animal facility. […] 72 hours post-infection, cells were selected with 2 μg/mL puromycin for 72 hours. At this point, the cells were maintained in fresh media for 2 days prior to injection into animals. Prior injection, cells were washed and resuspended in DMEM: 50% Matrigel (BD Pharmingen). 5×10^6 cells […] were injected to each mouse by subcutaneous route in the right flank (n=5 per group). Tumor volume was evaluated by measuring tumor diameters, with a calliper, three times a week during the follow-up period (23 days). The formula TV (mm^3)=[length (mm)×width (mm)2]/2 was used, where the length and the width are the longest and the shortest diameters of the tumor, respectively.

[6] = system: Notch-activation complex (ICN1-CSL-MAML1); test: Immunopurification / coimmunoprecipitation from SupT1 nuclear extracts (western blot); design: species or system human
Method: After two step affinity chromatography, protein complexes containing both tagged-proteins were peptide eluted and analyzed by western blot. For endogenous protein immunoprecipitations, nuclear extracts (500 μg-1 mg) were incubated with antibodies (1-2 μg) for 4 hr, followed by addition of 10 μL protein G Sepharose beads (Fast flow, Sigma) for 45 min before washing five times with 800 μL of buffer B015 in spin columns (Pierce).
Cells were lysed in lysis buffer (50 mM Tris-HCl, 120 mM NaCl, 5 mM EDTA, 0.5% NP-40 and PMSF) and briefly sonicated. Cell lysates and immunoprecipitates were boiled in SDS sample buffer and resolved on a 7% SDS-PAGE gel (Biorad). Proteins were liquid-transferred (Biorad) to nitrocellulose membrane in transfer buffer (20% methanol, 25 mM Tris, 192 mM Glycine, 0.037% SDS) during 90 min at 100V.

[7] = system: ICN1-binding sites of Notch-target genes; test: Chromatin immunoprecipitation (ChIP) in SupT1 cells; format: cell-based, human
Method: For ChIP experiments, 6×10^7 cells were cross-linked for 10 min with 1% formaldehyde (sigma) at room temperature. The cross-linking reaction was stopped by adding glycine to a final concentration of 0.125 M for 10 min at room temperature. Cells were washed twice with cold PBS and incubated on ice for 7 min in 2 mL of buffer containing 15 mM Tris-HCl (pH 7.4), 0.3 M sucrose (sigma), 60 mM KCl, 15 mM NaCl, 5 mM MgCl2, 0.1 mM EGTA and 0.1% NP-40. Each cell suspension was then layered over 8 mL sucrose cushion (15 mM Tris-HCl, 1.2 M sucrose, 60 mM KCl, 15 mM NaCl, 5 mM MgCl2 and 0.1 mM EGTA) and centrifuged at 10.000 g for 20 min at 4° C. Nuclear pellet was lysed with 1 mL lysis buffer (50 mM Tris-HCl pH 8, 10 mM EDTA, 1% SDS) complemented with Protease Inhibitor Cocktail (Roche). Chromatin was sonicated to generate DNA-fragments of approximately 300 to 500 bp in an ultra sonicator water bath (Bioruptor, Diagenode) using ten cycles of 30 s/on and 30 s/off. After centrifugation at 13.000 g for 20 min, an aliquot of sonicated DNA was reverse-crosslinked by addition of 250 mM NaCl and incubation at 65° C. for 6 h. DNA was extracted by phenol-chloroform, quantified using nanodrop and run on a 1% agarose gel to confirm DNA fragment size. The antibodies were pre-bound to Invitogen Dynal magnetic beads (Protein A or G beads) in PBS containing BSA (5 mg/mL) and chromatin was pre-cleared with beads for 4 h at 4° C. Immunoprecipitation was performed using 20 μg of chromatin and 2-3 μg of antibody coupled to 15 μL of beads in ChIP buffer (20 mM Tri-HCl pH 8, 150 mM NaCl, 2 mM EDTA, and 1% Triton X-100) complemented with Protease Inhibitor Cocktail. After overnight incubation at 4° C., beads were washed 4 times with wash buffer 1 (20 mM Tri-HCl pH 8, 150 mM NaCl, 2 mM EDTA, 1% Triton X-100 and 0.1% SDS) and 4 times with wash buffer 2 (20 mM Tri-HCl pH 8, 500 mM NaCl, 2 mM EDTA, 1% Triton X-100 and 0.1% SDS) using the DynaMag-2 magnet (Invitogen). Elution of immunoprecipitated DNA was performed in buffer containing 1% SDS and 100 mM NaHCO3. Crosslinking was reversed by incubation at 65° C. and proteins were degraded by addition of proteinase K (Sigma). Eluted DNA and 10% of input DNA were purified using phenol-chloroform extraction followed by isopropanol precipitation or using QIAquick PCR purification (Qiagen), according to the manufacturer instructions. Resultant DNA was dissolved in 60 μL of water containing 10 mM Tris-HCl pH 8. […] PCR measurements were performed in duplicate.

[8] = system: Notch-target genes in pre-T cells; test: ChIP in T-cell precursors from in vitro T-cell differentiation; format: cell-based, human; settings: GSI 5 μM, 2 days
Method: For ChIP experiments, 6×10^7 cells were cross-linked for 10 min with 1% formaldehyde (sigma) at room temperature. The cross-linking reaction was stopped by adding glycine to a final concentration of 0.125 M for 10 min at room temperature. Cells were washed twice with cold PBS and incubated on ice for 7 min in 2 mL of buffer containing 15 mM Tris-HCl (pH 7.4), 0.3 M sucrose (sigma), 60 mM KCl, 15 mM NaCl, 5 mM MgCl2, 0.1 mM EGTA and 0.1% NP-40. Each cell suspension was then layered over 8 mL sucrose cushion (15 mM Tris-HCl, 1.2 M sucrose, 60 mM KCl, 15 mM NaCl, 5 mM MgCl2 and 0.1 mM EGTA) and centrifuged at 10.000 g for 20 min at 4° C. Nuclear pellet was lysed with 1 mL lysis buffer (50 mM Tris-HCl pH 8, 10 mM EDTA, 1% SDS) complemented with Protease Inhibitor Cocktail (Roche). […] DNA was extracted by phenol-chloroform, quantified using nanodrop and run on a 1% agarose gel to confirm DNA fragment size. […]
CD34+ cells from human umbilical cord blood samples were sorted (Stemcell technologies) (≧95% purity) and cultured on OP9-DL1 stromal cells in αMEM media containing FLT3L (5 ng/ml), and IL7 (5 ng/ml) for 16 days. At day 16, most progenitors (˜90%) were engaged to the T-cell lineage (pre-T cells) as determined by the expression of CD5 and CD1a. pre-T-cells were cultured for 2 additional days on OP9-DL1 cells in presence or absence of GSI (5 μM).

[9] = system: ICN1-induced activation of p6XCBS-luc; test: Notch-responsive reporter assay (p6XCBS-luc) in HeLa cells; format: cell-based
Method: HeLa cells were co-transfected with 1 μg of a Notch-responsive firefly luciferase reporter containing 6 CSL-binding sites (p6XCBS-luc), 100 ng of TK-Renilla-luciferase vector (transfection control) and various amount (0.1-0.3-1 μg) of the MigR1-ICN1 expression vector. Transfections were performed in 6-wells plates using JetPEI reagent (Polyplus) according to manufacturer's instruction. Firefly luciferase activity was measured 24 hours post-transfection and normalized to Renilla luciferase expression. The values in the figures are Relative Luciferase Units (RLU) represented as fold induction over the luciferase activity measured in the absence of ICN1 (cells transfected with p6XCBS-luc and an empty vector).

For `NC1CC1c1cc(F)cc(F)c1OCc1ccccc1` (stereo not shown) [S2101], which “effect on monoamine oxidases” value (monoamine oxidases) is on record?
Its value is “much weaker effect”.

What about the “expression of Notch-responsive genes” value [1] of the same compound?
Its value is “depression of Notch-responsive genes”.

What about the “expression of the control S14 gene” value [1] of the same compound?
The value was “not affected”.

And the “Notch-target genes expression on LSD1 inhibitor treatment” value [2]?
Its value is “dose-dependent repression”.

What about the “Notch-induced HES1 activation” value [3] of the same compound?
Its value is “reduced HES1 activation”.

And the “HES1, HEY1 and DTX1 expression” value [4]?
Its value is “increased”.

For “PHF8 shRNA: shRNA targeting PHF8, SEQ ID NO: 1; pSUPER retroviral vector (GCTTCATGATCGAGTGTGACA)”, which proliferation [5] is on record?
The proliferation was “marked reduction”.

And the “cell-cycle progression in MOLT4 and H9” value (T-ALL cell lines; Notch-independent T-ALL cell lines)?
The value was “did not significantly affect”.

And the “cell cycle in NOTCH1-dependent T-ALL cells” value (T-ALL cell lines)?
The value was “G0/G1 cell-cycle arrest”.

What about the tumor establishment (SupT1 xenograft tumor) of the same compound?
The tumor establishment was “did not establish tumors”.

And the “Notch-mediated expression of c-MYC” value ([2]; shRNA knockdown)?
Its value is “suppressed”.

What does the source list for `C[C@H](NC(=O)Cc1cc(F)cc(F)c1)C(=O)N[C@H]1N=C(c2ccccc2)c2ccccc2N(C)C1=O` [GSI]?
MAML1 association with CSL, LSD1, PB1 and BRG1 ([6]; SupT1, GSI 500 nM, 8 hours): severely altered; binding of PHF8 and AF4p12 to MAML1 ([6]; SupT1, GSI 500 nM, 8 hours): only marginally reduced; LSD1 binding to endogenous MAML1 and ICN1 ([6]; SupT1 cells treated with DMSO or GSI): strongly reduced; H3K27me2 mark at IL7R and DTX1 loci ([7]; SupT1): increase; CSL and LSD1 binding ([7]; SupT1, ICN1-binding sites): did not significantly affect; ICN1 and MAML1 on chromatin ([7]; SupT1, ICN1-binding sites): released; recruitment of PBAF, PHF8 and AF4p12 ([7]; SupT1, ICN1-binding sites): reduced; RNAPII recruitment to Notch-target genes [8]: impaired

For `N[C@@H]1C[C@H]1c1ccccc1` (racemic) [TCP, tranylcypromine], which “ICN1-induced activation of the Notch-responsive reporter (p6XCBS-luc)” value [9] is on record?
Its value is “impaired”.

What about the “Notch-induced HES1 activation” value [3] of the same compound?
Its value is “reduced HES1 activation”.

What about the “HES1, HEY1 and DTX1 expression” value [4] of the same compound?
The value was “increased”.
